# Results taken from US5196410A, “Transdermal flux enhancing compositions” (priority 1991, dated 1993).
# Read-outs that look alike come from different tables or passages of the source.
# How the values were obtained:
# [1] = format: in vitro ADME, porcine
# Experimental: Samples were removed periodically from the receiver side of the diffusion cell, mixed with a Z0 scintillation cocktail (Scintisol, Isolabs, Inc., Akron, OH) and counted for several minutes in a liquid scintillation counter (Model Mark III-6881, Tracor Analytical, Elk Grove Village, IL). Following an initial lag time of about 6 hours, the amount of
# salicylic acid appearing in the receiver side was linear with time for the duration of the experiment (routinely 24 to 48 hours). […] This value, when divided by the specific acitivity of salicyclic acid in the saturated solution (approximately 300 dpm/mg) and the area of exposed skin (0.2 cm^2), yielded the flux (mg/cm^2/ hr). Samples removed from the donor side at the beginning and end of the experiment contained, within error, the same amount of salicylic acid. Thus, constant concentration of the permeant was maintained on the donor side throughout the experiment.
# [2] = Infrared spectra of fatty acid treated porcine stratum corneum; details: C-H antisymmetric stretching, stratum corneum treated with […] fatty acid in ethanol, 30% (w/w) water
# Experimental: (§1) Stratum corneum sheets were prepared from porcine skin by trypsin treatment. Thus, full thickness porcine skin samples were dermatomed to 350 μm thickness and spread, stratum corneum side up, on filter paper saturated with 0.5% crude trypsin in phosphate buffered saline at pH 7.4 (Sorensen's buffer). After several hours at 37° C. the stratum corneum was peeled away, washed in soybean trypsin inhibitor, water and air dried. Samples were stored desiccated at room temperature until used. Prior to use, dry skin samples of known weight were incubated for two hours in an 0.15M solution of the appropriate fatty acid in ethanol, the samples were then washed for ten seconds in ethanol, spread on wire mesh, dried over a desiccant and the dry sample reweighed. The stratum corneum samples were then held for several days in a chamber at 22° C., 95% relative humidity, during which the stratum corneum samples equilibrated to a water content of 30% (w/w).
# Infrared spectra were obtained with a Fourier Transform Infrared Spectrometer^4 (FTIR) equipped with a liquid nitrogen cooled mercury-cadmium telluride detector. In order to prevent water loss, hydrated samples were sealed between zinc sulfide windows while maintained at 22° C., 95% relative humidity. Sealed samples were placed in the spectrometer where an average of 127 scans were obtained in about six minutes for each of the fatty acid treatments. The digitized data were transferred to a computer (Apple IIe) for determination of frequency and bandwidth of the C--H antisymmetric stretching absorbance. Due to the digital nature of the FTIR instrument, absorbance and frequency data exist only in discrete increments. With the instrument used, the exact value of any frequency point could only be determined with a precision not greater than 2.7 cm^-1. The peak frequency was estimated with much greater precision, however, using a center of gravity algorithm for digitized data reported by Cameron et al., Applied Spectr., 36 245-250 (1982).
# [3] = Differential scanning calorimetry of fatty acid treated porcine stratum corneum; details: stratum corneum treated with […] fatty acid in ethanol, 30% (w/w) water
# Experimental: as §1
# (§2) The differential scanning calorimeter^5 was used at a scan rate of 0.75° C./minute. Duplicate samples from each of the above FTIR experiments were combined for DSC measurements. Alternately, stratum corneum samples of known weight (about 20 mg) were treated with each fatty acid in the same manner described above. Treated samples were hydrated for several days at 95% R.H., 22° C. and reweighed.
# [4] = for Flux: SD in parentheses
# [5] = Experimental: The in vitro flux of piroxicam was measured from ethanol/buffer vehicles containing 0.25% v/v (0.224% w/v) cis-9-octadecenoic acid (oleic acid). The buffer employed was Sorensen's Buffer, pH 7.3-7.4^3, all experiments were carried out at 32° C. […] Buffer only was introduced into the chamber (receiver) in contact with the internal side of the skin. The donor chamber, in contact with the outer side of the skin was filled with the appropriate ethanol/buffer vehicle containing 0.25% v/v cis-9-octadecenoic acid (oleic acid) and an excess of piroxicam.
# [6] = Lipid transition temperature of porcine stratum corneum by DSC in vehicles containing oleic acid
# Experimental: as §1, with “dry skin samples of known weight were incubated for two hours in an 0.15M solution of the appropriate” left out
# as §2
# [7] = physchem; details: […] oleic acid, organic solvent or mixture
# [8] = saturated salicylic acid in ethanol with […] of the fatty acid, 32° C.
compound,measurement,setting,value
"CCCCCCCC/C=C/CCCCCCCC(=O)O [Elaidic, elaidic acid]",Flux of Salicylic Acid,[1],2.35 mg/cm^2 /hr
same,Peak IR Frequency,[2],2919.4 cm⁻¹
same,DSC Tm (temperature of the transition maximum),[3],61.5 °C
Cc1cnc(C(=O)NCCc2ccc(S(=O)(=O)NC(=O)NC3CCCCC3)cc2)cn1 [Glipizide],Flux,"[4]; 20% v/v ethanol, 0.5% v/v Azone, 6.8 mg/ml, pH 8.8",55.9 (38.8) mg/day/30 cm^2
same,Flux,"[4]; 20% v/v ethanol, no Azone, 6.7 mg/ml, pH 8.9",0.4 (0.04) mg/day/30 cm^2
same,Flux,"[4]; 30% v/v ethanol, 0.5% v/v Azone, 8.1 mg/ml, pH 8.8",101.4 (10.3) mg/day/30 cm^2
same,Flux,"[4]; 30% v/v ethanol, no Azone, 8.2 mg/ml, pH 8.9",0.6 (0.2) mg/day/30 cm^2
same,Flux,"[4]; 55% v/v ethanol, 0.5% v/v Azone, 17.5 mg/ml, pH 8.8",30.8 (6.5) mg/day/30 cm^2
same,Flux,"[4]; 55% v/v ethanol, no Azone, 17.9 mg/ml, pH 9.1",2.7 (0.5) mg/day/30 cm^2
same,in vitro transport,[4]; range over vehicles,30.8 to 101.4 mg/day/30 cm^2
"CC(C)Cc1ccc(C(C)C(=O)O)cc1 (centres unmarked) [Ibuprofen, 2-(4-isobutylphenyl)propionic acid]",Relative Flux,"[5]; 0/100 v/v ethanol/buffer, […] v/v oleic acid (reference)",1.0
same,Relative Flux,"[5]; 20/80 v/v ethanol/buffer, […] v/v oleic acid, relative to 0/100 ethanol/buffer",1.5
same,Relative Flux,"[5]; 30/70 v/v ethanol/buffer, […] v/v oleic acid, relative to 0/100 ethanol/buffer",1.8
same,Relative Flux,"[5]; 40/60 v/v ethanol/buffer, […] v/v oleic acid, relative to 0/100 ethanol/buffer",3.5
same,Relative Flux,"[5]; 50/50 v/v ethanol/buffer, […] v/v oleic acid, relative to 0/100 ethanol/buffer",5
same,Relative Flux,"[5]; 60/40 v/v ethanol/buffer, […] v/v oleic acid, relative to 0/100 ethanol/buffer",4.5
same,Relative Flux,"[5]; 70/30 v/v ethanol/buffer, […] v/v oleic acid, relative to 0/100 ethanol/buffer",4.5
same,Relative Flux,"[5]; 100/0 v/v ethanol/buffer, […] v/v oleic acid, relative to 0/100 ethanol/buffer",4.5
"CCCCCCCC/C=C\CCCCCCCC(=O)O [Oleic Acid, cis-9-octadecenoic acid]","Lipid Transition Temperature, Tm","[6]; 0/100 PEG 200/0.1M Tris buffer (pH 6.8-7.3), […] v/v oleic acid",59 °C
same,"Lipid Transition Temperature, Tm","[6]; 0/100 ethanol/0.1M Tris buffer (pH 6.8-7.3), […] v/v oleic acid",58 °C
same,"Lipid Transition Temperature, Tm","[6]; 0/100 glycerin/0.1M Tris buffer (pH 6.8-7.3), […] v/v oleic acid",58 °C
same,"Lipid Transition Temperature, Tm","[6]; 0/100 v/v ethanol/Sorensen's buffer pH 7.3, […] v/v oleic acid",57.5 °C
same,"Lipid Transition Temperature, Tm","[6]; 20/40/40 ethanol/PG/0.1M Tris buffer (pH 6.8-7.3), […] v/v oleic acid",55 °C
same,"Lipid Transition Temperature, Tm","[6]; 20/80 PEG 200/0.1M Tris buffer (pH 6.8-7.3), […] v/v oleic acid",59 °C
same,"Lipid Transition Temperature, Tm","[6]; 20/80 ethanol/0.1M Tris buffer (pH 6.8-7.3), […] v/v oleic acid",59 °C
same,"Lipid Transition Temperature, Tm","[6]; 20/80 glycerin/0.1M Tris buffer (pH 6.8-7.3), […] v/v oleic acid",62.5 °C
same,"Lipid Transition Temperature, Tm","[6]; 20/80 v/v ethanol/Sorensen's buffer pH 7.3, […] v/v oleic acid",54.5 °C
same,"Lipid Transition Temperature, Tm","[6]; 30/70 v/v ethanol/Sorensen's buffer pH 7.3, […] v/v oleic acid",54.0 °C
same,"Lipid Transition Temperature, Tm","[6]; 33/33/34 ethanol/PG/0.1M Tris buffer (pH 6.8-7.3), […] v/v oleic acid",59 °C
same,"Lipid Transition Temperature, Tm","[6]; 34/66/0 ethanol/PG/0.1M Tris buffer (pH 6.8-7.3), […] v/v oleic acid",61 °C
same,"Lipid Transition Temperature, Tm","[6]; 40/20/40 ethanol/PG/0.1M Tris buffer (pH 6.8-7.3), […] v/v oleic acid",58.5 °C
same,"Lipid Transition Temperature, Tm","[6]; 40/40/20 ethanol/PG/0.1M Tris buffer (pH 6.8-7.3), […] v/v oleic acid",60 °C
same,"Lipid Transition Temperature, Tm","[6]; 40/60 PEG 200/0.1M Tris buffer (pH 6.8-7.3), […] v/v oleic acid",57.5 °C
same,"Lipid Transition Temperature, Tm","[6]; 40/60 ethanol/0.1M Tris buffer (pH 6.8-7.3), […] v/v oleic acid",55 °C
same,"Lipid Transition Temperature, Tm","[6]; 40/60 glycerin/0.1M Tris buffer (pH 6.8-7.3), […] v/v oleic acid",57 °C
same,"Lipid Transition Temperature, Tm","[6]; 40/60 v/v ethanol/Sorensen's buffer pH 7.3, […] v/v oleic acid",53.2 ± 0.6 °C
same,"Lipid Transition Temperature, Tm","[6]; 50/50 v/v ethanol/Sorensen's buffer pH 7.3, […] v/v oleic acid",55.1 °C
same,"Lipid Transition Temperature, Tm","[6]; 60/40 PEG 200/0.1M Tris buffer (pH 6.8-7.3), […] v/v oleic acid",57 °C
same,"Lipid Transition Temperature, Tm","[6]; 60/40 ethanol/0.1M Tris buffer (pH 6.8-7.3), […] v/v oleic acid",59 °C
same,"Lipid Transition Temperature, Tm","[6]; 60/40 glycerin/0.1M Tris buffer (pH 6.8-7.3), […] v/v oleic acid",54 °C
same,"Lipid Transition Temperature, Tm","[6]; 60/40 v/v ethanol/Sorensen's buffer pH 7.3, […] v/v oleic acid",53.4 °C
same,"Lipid Transition Temperature, Tm","[6]; 66/34/0 ethanol/PG/0.1M Tris buffer (pH 6.8-7.3), […] v/v oleic acid",60 °C
same,"Lipid Transition Temperature, Tm","[6]; 70/30 v/v ethanol/Sorensen's buffer pH 7.3, […] v/v oleic acid",58.8 °C
same,"Lipid Transition Temperature, Tm","[6]; 80/20 PEG 200/0.1M Tris buffer (pH 6.8-7.3), […] v/v oleic acid",61 °C
same,"Lipid Transition Temperature, Tm","[6]; 80/20 ethanol/0.1M Tris buffer (pH 6.8-7.3), […] v/v oleic acid",61 °C
same,"Lipid Transition Temperature, Tm","[6]; 80/20 glycerin/0.1M Tris buffer (pH 6.8-7.3), […] v/v oleic acid",59 °C
same,"Lipid Transition Temperature, Tm","[6]; 100/0 v/v ethanol/Sorensen's buffer pH 7.3, […] v/v oleic acid",66.4 °C
same,Flux of Salicylic Acid,[1],3.81 mg/cm^2 /hr
same,flux of salicylic acid (in words),[1],significantly greater
same,DSC Tm (temperature of the transition maximum),[3],59.0 ± 1.5 °C
CCCCCCCCCCC/C=C/CCCCC(=O)O [Petroseladic],Flux of Salicylic Acid,[1],0.97 mg/cm^2 /hr
same,Peak IR Frequency,[2],2919.0 cm⁻¹
same,DSC Tm (temperature of the transition maximum),[3],62.0 °C
CCCCCCCCCCC/C=C\CCCCC(=O)O [Petroselenic],Flux of Salicylic Acid,[1],0.79 mg/cm^2 /hr
same,Peak IR Frequency,[2],2919.0 cm⁻¹
same,DSC Tm (temperature of the transition maximum),[3],60.5 °C
"CN1C(C(=O)Nc2ccccn2)=C(O)c2ccccc2S1(=O)=O [Piroxicam, 4-hydroxy-2-methyl-N-2-pyridinyl-2H-1,2-benzothiazine-3-carboxamide 1,1-dioxide]",solubility,[7]; 0/100 ethanol/buffer,40 µg/mL
same,solubility,[7]; 10/90 ethanol/buffer,190 µg/mL
same,solubility,[7]; 20/80 ethanol/buffer,460 µg/mL
same,solubility,[7]; 30/70 ethanol/buffer,710 µg/mL
same,solubility,[7]; 40/60 ethanol/buffer,1200 µg/mL
same,solubility,[7]; 50/50 ethanol/buffer,1500 µg/mL
same,solubility,[7]; 100/0 ethanol/buffer,1200 µg/mL
"CCCCCCCCCCCCCCCCCC(=O)O [Stearic, stearic acid]",Flux of Salicylic Acid,[1]; [8],1.21 mg/cm^2 /hr
same,Peak IR Frequency,[2],2918.0 ± 0.4 cm⁻¹
same,Peak IR Frequency,[2]; listed as stearic acid,2918 to 2919 cm⁻¹
same,DSC Tm (temperature of the transition maximum),[3],62.5 ± 1.0 °C
NC(CO)(CO)CO [Tris],effect on oleic acid's action on stratum corneum lipids,[6]; concentration dependent,reduces the effect of oleic acid on stratum corneum lipids
"CCCCCC/C=C\CCCCCCCCCC(=O)O [cis-vaccenic, cis-11-octadecenoic acid]",flux of salicylic acid (in words),[1]; difference relative to the controls and trans-vaccenic acid,even greater
same,Flux of Salicylic Acid,[1]; [8],5.53 mg/cm^2 /hr
same,DSC Tm (temperature of the transition maximum),[3],57.0 °C
